The source made the active and inactive calls.

We go through 17 molecules from ChEMBL document CHEMBL3991601, “The target landscape of clinical kinase drugs” (Science, 2017).

Test [1] addresses T1, Glycogen phosphorylase, liver form (Homo sapiens, UniProt P06737).
T1 sequence (P06737 whole entry): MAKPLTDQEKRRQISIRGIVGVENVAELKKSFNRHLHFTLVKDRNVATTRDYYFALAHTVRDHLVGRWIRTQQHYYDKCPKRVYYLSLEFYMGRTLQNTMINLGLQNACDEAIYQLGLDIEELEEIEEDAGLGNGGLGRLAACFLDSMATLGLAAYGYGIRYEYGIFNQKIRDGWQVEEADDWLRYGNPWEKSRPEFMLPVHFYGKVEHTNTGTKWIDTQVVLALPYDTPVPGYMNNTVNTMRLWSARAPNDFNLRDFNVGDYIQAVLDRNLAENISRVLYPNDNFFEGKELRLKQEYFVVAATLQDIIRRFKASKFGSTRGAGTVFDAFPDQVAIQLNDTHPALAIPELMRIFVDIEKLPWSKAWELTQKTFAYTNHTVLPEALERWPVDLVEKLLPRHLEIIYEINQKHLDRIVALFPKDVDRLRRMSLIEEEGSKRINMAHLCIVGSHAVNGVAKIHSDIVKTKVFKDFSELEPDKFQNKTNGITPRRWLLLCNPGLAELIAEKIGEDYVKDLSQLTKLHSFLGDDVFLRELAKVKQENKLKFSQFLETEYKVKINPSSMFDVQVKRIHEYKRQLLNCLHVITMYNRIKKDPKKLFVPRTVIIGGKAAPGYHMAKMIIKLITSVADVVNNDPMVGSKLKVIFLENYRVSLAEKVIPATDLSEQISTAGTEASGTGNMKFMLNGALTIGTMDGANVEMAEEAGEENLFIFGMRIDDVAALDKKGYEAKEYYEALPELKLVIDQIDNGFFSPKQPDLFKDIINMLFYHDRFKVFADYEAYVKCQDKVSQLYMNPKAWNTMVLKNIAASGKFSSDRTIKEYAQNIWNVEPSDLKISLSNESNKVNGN
It counts as subcellular, K-562, COLO 205, SK-N-BE(2) and MV-4-11, Cell lysate. The settings on record: read-out: Kd apparent.

Test [2] concerns the target T2, Inhibitor of nuclear factor kappa-B kinase subunit epsilon (Homo sapiens, UniProt Q14164).
T2 sequence (Q14164 whole entry): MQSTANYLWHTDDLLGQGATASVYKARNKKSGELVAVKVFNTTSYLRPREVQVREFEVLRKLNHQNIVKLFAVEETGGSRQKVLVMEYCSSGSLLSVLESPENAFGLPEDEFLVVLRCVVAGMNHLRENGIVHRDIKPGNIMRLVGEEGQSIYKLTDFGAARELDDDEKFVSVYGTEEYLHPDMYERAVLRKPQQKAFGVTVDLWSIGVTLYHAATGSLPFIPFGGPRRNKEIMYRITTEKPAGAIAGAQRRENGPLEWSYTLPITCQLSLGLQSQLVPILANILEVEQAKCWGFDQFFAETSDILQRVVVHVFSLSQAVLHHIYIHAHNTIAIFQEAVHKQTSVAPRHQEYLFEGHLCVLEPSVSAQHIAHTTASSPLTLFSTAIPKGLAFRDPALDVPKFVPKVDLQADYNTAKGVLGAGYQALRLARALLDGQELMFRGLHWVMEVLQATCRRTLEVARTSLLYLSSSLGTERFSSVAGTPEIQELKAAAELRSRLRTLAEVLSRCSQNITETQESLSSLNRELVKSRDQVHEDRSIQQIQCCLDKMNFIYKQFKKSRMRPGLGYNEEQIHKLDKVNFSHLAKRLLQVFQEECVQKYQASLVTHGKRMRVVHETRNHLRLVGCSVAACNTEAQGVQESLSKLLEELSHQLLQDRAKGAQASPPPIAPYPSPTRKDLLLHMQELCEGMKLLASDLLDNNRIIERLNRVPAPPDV

Test [3] addresses T3, Serine/threonine-protein kinase Nek1 (Homo sapiens, UniProt Q96PY6).
T3 sequence (Q96PY6 whole entry): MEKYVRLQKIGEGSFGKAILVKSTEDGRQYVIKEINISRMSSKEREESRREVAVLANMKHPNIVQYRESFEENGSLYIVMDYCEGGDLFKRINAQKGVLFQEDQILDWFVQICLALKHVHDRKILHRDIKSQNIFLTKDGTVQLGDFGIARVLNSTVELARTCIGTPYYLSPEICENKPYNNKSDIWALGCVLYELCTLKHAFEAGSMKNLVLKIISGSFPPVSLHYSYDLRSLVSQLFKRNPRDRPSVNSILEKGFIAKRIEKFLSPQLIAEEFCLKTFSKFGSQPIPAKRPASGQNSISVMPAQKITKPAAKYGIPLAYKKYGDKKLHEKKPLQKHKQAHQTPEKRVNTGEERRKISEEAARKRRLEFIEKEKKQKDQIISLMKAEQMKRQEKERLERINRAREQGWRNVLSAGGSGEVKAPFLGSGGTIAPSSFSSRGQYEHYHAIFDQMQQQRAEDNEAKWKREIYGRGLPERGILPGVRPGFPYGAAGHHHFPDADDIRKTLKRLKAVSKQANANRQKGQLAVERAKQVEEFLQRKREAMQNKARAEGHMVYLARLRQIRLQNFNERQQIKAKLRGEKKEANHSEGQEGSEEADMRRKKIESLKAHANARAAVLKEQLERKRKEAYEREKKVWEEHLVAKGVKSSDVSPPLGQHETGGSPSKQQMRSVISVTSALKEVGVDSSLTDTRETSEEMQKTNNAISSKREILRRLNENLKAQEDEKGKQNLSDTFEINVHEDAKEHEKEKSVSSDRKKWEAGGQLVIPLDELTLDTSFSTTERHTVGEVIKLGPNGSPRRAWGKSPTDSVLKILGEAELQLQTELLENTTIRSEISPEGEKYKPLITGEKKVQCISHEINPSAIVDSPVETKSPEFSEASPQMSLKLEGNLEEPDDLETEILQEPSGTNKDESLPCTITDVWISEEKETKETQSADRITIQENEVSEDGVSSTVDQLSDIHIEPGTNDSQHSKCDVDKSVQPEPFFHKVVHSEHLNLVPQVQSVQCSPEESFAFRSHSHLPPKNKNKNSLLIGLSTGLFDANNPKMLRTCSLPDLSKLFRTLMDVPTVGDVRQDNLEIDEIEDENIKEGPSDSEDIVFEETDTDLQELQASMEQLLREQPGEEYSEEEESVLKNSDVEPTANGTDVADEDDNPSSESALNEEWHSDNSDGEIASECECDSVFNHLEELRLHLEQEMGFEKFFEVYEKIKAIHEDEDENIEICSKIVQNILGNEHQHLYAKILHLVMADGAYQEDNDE
Also: in the data inactive means no Kd found up to 30 µM.

Take `CO[C@H]1C[C@@H]2CC[C@@H](C)[C@@](O)(O2)C(=O)C(=O)N2CCCC[C@H]2C(=O)O[C@H]([C@H](C)C[C@@H]2CC[C@@H](OP(C)(C)=O)[C@H](OC)C2)CC(=O)[C@H](C)/C=C(\C)[C@@H](O)[C@@H](OC)C(=O)[C@H](C)C[C@H](C)/C=C/C=C/C=C/1C` [RIDAFOROLIMUS]: the Kd in test [1], in test [2] and in test [3] was > 30 µM (inactive) throughout.

As for `N#CC1(c2ccc(NC(=O)c3cccnc3NCc3ccncc3)cc2)CCCC1` [RIVOCERANIB], the Kd in test [1], in test [2] and in test [3] was > 30 µM (inactive) in each case.

For the molecule `O=c1[nH]ccc2cc(OC3CCNCC3)ccc12` [SAR-407899 FREE BASE], the Kd in test [1], in test [2] and in test [3] was > 30 µM (inactive) each time.

`CN1CCN(CCOc2cc(OC3CCOCC3)c3c(Nc4c(Cl)ccc5c4OCO5)ncnc3c2)CC1` [SARACATINIB]: the Kd in test [1], in test [2] and in test [3] was > 30 µM (inactive) in each case.

For `Cn1cc(-c2cnn3c(N)c(Br)c([C@@H]4CCCNC4)nc23)cn1` [SCH-900776], the Kd in test [1], in test [2] and in test [3] was > 30 µM (inactive) in each case.

With `CO[C@H]1C[C@@H]2CC[C@@H](C)[C@@](O)(O2)C(=O)C(=O)N2CCCC[C@H]2C(=O)O[C@H]([C@H](C)C[C@@H]2CC[C@@H](O)[C@H](OC)C2)CC(=O)[C@H](C)/C=C(\C)[C@@H](O)[C@@H](OC)C(=O)[C@H](C)C[C@H](C)/C=C/C=C/C=C/1C` [SIROLIMUS], the Kd in test [1], in test [2] and in test [3] was > 30 µM (inactive) in each case.

`CCS(=O)(=O)c1cccc(-c2cc(C(=O)NC3CCN(C)CC3)c(C)c3[nH]c4ncc(C)cc4c23)c1` [TAK-901]: the Kd in test [1], in test [2] and in test [3] was > 30 µM (inactive) in each case.

For `CO[C@H]1C[C@@H]2CC[C@@H](C)[C@@](O)(O2)C(=O)C(=O)N2CCCC[C@H]2C(=O)O[C@H]([C@H](C)C[C@@H]2CC[C@@H](OC(=O)C(C)(CO)CO)[C@H](OC)C2)CC(=O)[C@H](C)/C=C(\C)[C@@H](O)[C@@H](OC)C(=O)[C@H](C)C[C@H](C)/C=C/C=C/C=C/1C` [TEMSIROLIMUS], the Kd in test [1], in test [2] and in test [3] was > 30 µM (inactive) each time.

On to `COc1cc2c(Nc3ccc(Cl)c(Cl)c3F)ncnc2cc1OC[C@@H]1C[C@@H]2CN(C)C[C@@H]2C1` [TESEVATINIB], for which the Kd in test [1], in test [2] and in test [3] was > 30 µM (inactive) in each case.

Regarding `O=C(Cc1ccc(-c2ccc(OCCN3CCOCC3)cc2)cn1)NCc1ccccc1` [TIRBANIBULIN], the Kd in test [1], in test [2] and in test [3] was > 30 µM (inactive) in each case.

As to `O=C1NC(=O)[C@@H](c2cn3c4c(cccc24)CCC3)[C@@H]1c1c[nH]c2ccccc12` [TIVANTINIB], the Kd in test [1], in test [2] and in test [3] was > 30 µM (inactive) throughout.

In the case of `C[C@@H](NC(=O)c1ncnc(N)c1Cl)c1ncc(C(=O)Nc2cc(C(F)(F)F)c(Cl)cn2)s1` [TOVORAFENIB], the Kd in test [1], in test [2] and in test [3] was > 30 µM (inactive) throughout.

`Cc1cc(Nc2ncnc3ccc(NC4=NC(C)(C)CO4)cc23)ccc1Oc1ccn2ncnc2c1` [TUCATINIB]: the Kd in test [1], in test [2] and in test [3] was > 30 µM (inactive) throughout.

As for `Cn1ncc(Cl)c1-c1cc(C(=O)N[C@H](CN)Cc2ccc(F)c(F)c2)oc1Cl` [UPROSERTIB], the Kd in test [1], in test [2] and in test [3] was > 30 µM (inactive) in each case.

Regarding `CC(C)c1cc(CNc2nc(Nc3cc(C4CC4)[nH]n3)cc(N3CCN(C)CC3)n2)on1` [XL-228], the Kd in test [1] was > 30 µM (inactive); in test [2] it was 1.39 µM (active); in test [3] it was > 30 µM (inactive).

On to `C[C@@H](N)c1ccc(C(=O)Nc2ccnc3[nH]ccc23)cc1` [Y-39983], for which the Kd in test [1], in test [2] and in test [3] was > 30 µM (inactive) throughout.

With `CN1C/C=C/CCOc2cccc(c2)-c2ccnc(n2)Nc2cccc(c2)C1` [ZOTIRACICLIB], the Kd in test [1], in test [2] and in test [3] was > 30 µM (inactive) throughout.
